Literature values as cited in patent US6700032B1, “Wound care management” (Leatherite Pty Limited, priority 1996, dated 2004).

Conditions: recommended concentrations

For “2,4,4′-trichloro-2′-hydroxy diphenyl ether [Triclosan]”, the toxicological testing is given as “safe at recommended concentrations”.
